In PubChem BioAssay (NCI):
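How tested: cells in 96-well plates exposed to compound for 48 hours at five concentrations. TGI denotes the concentration required for complete inhibition of growth.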 Where a SMILES comes first, the peptide text is derived from it. The star is where a group is joined. Ethyl(2-NMe3+) = C[N+](C)(C)CC*; Boc = CC(C)(C)OC(=O)*

How the values were obtained:
Experiment in all cases: NCI tumour cell line growth inhibition, 48 h
NCI-H460 lung = tested on: NCI-H460 lung
A549 NSCLC = tested on: A549 NSCLC
NCI-H226 lung = tested on: NCI-H226 lung
PC-3 prostate = tested on: PC-3 prostate
EKVX NSCLC = tested on: EKVX NSCLC
786-0 renal = tested on: 786-0 renal
SR leukemia = tested on: SR leukemia
K-562 leukemia = tested on: K-562 leukemia
CCRF-CEM leukemia = tested on: CCRF-CEM leukemia
SK-MEL-2 melanoma = tested on: SK-MEL-2 melanoma
M14 melanoma = tested on: M14 melanoma
RPMI-8226 leukemia = tested on: RPMI-8226 leukemia

Measured: TGI

CC(C)(C)OC(=O)N1CCC2(C)CC(=O)CC=C12 (centres undefined)
> 100 µM: NCI-H460 lung | A549 NSCLC | NCI-H226 lung | PC-3 prostate | EKVX NSCLC | 786-0 renal | SR leukemia | K-562 leukemia | CCRF-CEM leukemia | SK-MEL-2 melanoma | M14 melanoma

COc1ccc(NC(=O)/C(=N/NC(N)=S)C2C(=O)NC(=S)NC2=O)c(OC)c1
> 100 µM: NCI-H460 lung | RPMI-8226 leukemia | A549 NSCLC | NCI-H226 lung | PC-3 prostate | EKVX NSCLC | 786-0 renal | K-562 leukemia | CCRF-CEM leukemia | SK-MEL-2 melanoma | M14 melanoma

CC(C)(C)OC(=O)NC(CCC(=O)OCc1ccccc1)C(=O)NCCCO (centres undefined)
> 100 µM: NCI-H460 lung | RPMI-8226 leukemia | A549 NSCLC | NCI-H226 lung | EKVX NSCLC | 786-0 renal | SR leukemia | K-562 leukemia | CCRF-CEM leukemia | SK-MEL-2 melanoma | M14 melanoma

CC(NC(=O)C(Cc1ccc(OCC[N+](C)(C)C)cc1)NC(=O)OC(C)(C)C)C(=O)NC(Cc1ccccc1)C(=O)NCC(N)=O (centres undefined) (Boc-Y(Ethyl(2-NMe3+))AFG-NH2; configuration not given here)
> 100 µM: NCI-H460 lung | RPMI-8226 leukemia | A549 NSCLC | PC-3 prostate | K-562 leukemia | M14 melanoma
44.6 µM: 786-0 renal
59 µM: NCI-H226 lung
25.2 µM: SK-MEL-2 melanoma

CC1=C(C(=O)N(C(C)C)C(C)C)CC(C(=O)N(C(C)C)C(C)C)=C(C)N1
> 100 µM: NCI-H460 lung | RPMI-8226 leukemia | A549 NSCLC | NCI-H226 lung | PC-3 prostate | EKVX NSCLC | 786-0 renal | K-562 leukemia | CCRF-CEM leukemia | SK-MEL-2 melanoma | M14 melanoma

CCN(CC)c1c(-c2c(N(CC)CC)c(OC(C)=O)c3sccn3c2=O)c(=O)n2ccsc2c1OC(C)=O
> 100 µM: NCI-H460 lung | RPMI-8226 leukemia | NCI-H226 lung | PC-3 prostate | EKVX NSCLC | K-562 leukemia | CCRF-CEM leukemia | SK-MEL-2 melanoma | M14 melanoma
90.1 µM: 786-0 renal

O=[N+]([O-])c1cc2c(c([N+](=O)[O-])c1)NCc1ccccc1O2
> 100 µM: NCI-H460 lung | RPMI-8226 leukemia | A549 NSCLC | NCI-H226 lung | PC-3 prostate | EKVX NSCLC | 786-0 renal | SR leukemia | CCRF-CEM leukemia | SK-MEL-2 melanoma

CC(C)=c1sc(=C(C)C)c2c1=NC(C)(C)N=2
> 100 µM: NCI-H460 lung | RPMI-8226 leukemia | A549 NSCLC | PC-3 prostate | EKVX NSCLC | 786-0 renal | CCRF-CEM leukemia | SK-MEL-2 melanoma | M14 melanoma

COc1cc([C@H]2CC(=O)C[C@H](c3cc(OC)c(OC)c(OC)c3)C23C(=O)c2ccccc2C3=O)cc(OC)c1OC
> 100 µM: NCI-H460 lung | RPMI-8226 leukemia | A549 NSCLC | NCI-H226 lung | PC-3 prostate | EKVX NSCLC | 786-0 renal | SR leukemia | K-562 leukemia | SK-MEL-2 melanoma | M14 melanoma

S=C1CSc2c(ccc3ccccc23)N1
> 100 µM: NCI-H460 lung | RPMI-8226 leukemia | A549 NSCLC | NCI-H226 lung | PC-3 prostate | EKVX NSCLC | 786-0 renal | SR leukemia | K-562 leukemia | CCRF-CEM leukemia | M14 melanoma
